ChEMBL document CHEMBL1201862, “PubChem BioAssay data set” (2004)
Activity calls are given as the source filed them.

Tests used:
[1] = molecular target: T1, Apoptotic protease-activating factor 1 (Homo sapiens, UniProt O14727); format: functional
T1 sequence (O14727 whole entry): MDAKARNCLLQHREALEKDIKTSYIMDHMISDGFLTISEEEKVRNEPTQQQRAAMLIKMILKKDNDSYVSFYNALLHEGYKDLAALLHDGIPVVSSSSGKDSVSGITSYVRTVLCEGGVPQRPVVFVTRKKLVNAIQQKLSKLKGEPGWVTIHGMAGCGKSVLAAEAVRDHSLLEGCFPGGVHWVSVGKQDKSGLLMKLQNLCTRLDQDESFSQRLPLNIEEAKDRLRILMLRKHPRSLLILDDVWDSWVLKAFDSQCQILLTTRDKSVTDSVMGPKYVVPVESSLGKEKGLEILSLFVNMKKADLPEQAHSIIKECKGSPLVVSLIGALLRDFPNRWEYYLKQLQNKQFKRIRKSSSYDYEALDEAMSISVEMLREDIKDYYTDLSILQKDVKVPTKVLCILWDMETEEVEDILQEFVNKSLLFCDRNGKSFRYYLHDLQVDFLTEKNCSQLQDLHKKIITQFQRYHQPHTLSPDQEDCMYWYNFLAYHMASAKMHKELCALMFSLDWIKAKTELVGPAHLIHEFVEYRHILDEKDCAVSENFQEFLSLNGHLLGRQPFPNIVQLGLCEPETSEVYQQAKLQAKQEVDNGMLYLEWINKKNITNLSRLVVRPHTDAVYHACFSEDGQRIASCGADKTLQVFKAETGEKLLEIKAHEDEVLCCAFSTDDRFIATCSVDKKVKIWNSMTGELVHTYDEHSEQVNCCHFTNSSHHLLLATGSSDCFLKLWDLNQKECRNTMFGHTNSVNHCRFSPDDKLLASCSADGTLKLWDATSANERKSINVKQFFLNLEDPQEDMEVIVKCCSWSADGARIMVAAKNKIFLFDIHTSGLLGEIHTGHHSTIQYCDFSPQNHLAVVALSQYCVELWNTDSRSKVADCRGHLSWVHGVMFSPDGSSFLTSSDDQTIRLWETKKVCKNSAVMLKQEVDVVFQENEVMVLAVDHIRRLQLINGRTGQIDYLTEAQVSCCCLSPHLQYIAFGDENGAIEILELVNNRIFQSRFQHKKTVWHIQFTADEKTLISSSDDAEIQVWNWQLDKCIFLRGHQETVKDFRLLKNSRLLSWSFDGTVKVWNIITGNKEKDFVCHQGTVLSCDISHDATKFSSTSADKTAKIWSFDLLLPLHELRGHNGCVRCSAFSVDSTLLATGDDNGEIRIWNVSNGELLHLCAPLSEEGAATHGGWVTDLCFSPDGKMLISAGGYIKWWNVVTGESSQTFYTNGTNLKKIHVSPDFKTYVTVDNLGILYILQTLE

[2] = molecular target: T2, Histone-lysine N-methyltransferase NSD2 (Homo sapiens, UniProt O96028); format: biochemical
T2 sequence (O96028 whole entry): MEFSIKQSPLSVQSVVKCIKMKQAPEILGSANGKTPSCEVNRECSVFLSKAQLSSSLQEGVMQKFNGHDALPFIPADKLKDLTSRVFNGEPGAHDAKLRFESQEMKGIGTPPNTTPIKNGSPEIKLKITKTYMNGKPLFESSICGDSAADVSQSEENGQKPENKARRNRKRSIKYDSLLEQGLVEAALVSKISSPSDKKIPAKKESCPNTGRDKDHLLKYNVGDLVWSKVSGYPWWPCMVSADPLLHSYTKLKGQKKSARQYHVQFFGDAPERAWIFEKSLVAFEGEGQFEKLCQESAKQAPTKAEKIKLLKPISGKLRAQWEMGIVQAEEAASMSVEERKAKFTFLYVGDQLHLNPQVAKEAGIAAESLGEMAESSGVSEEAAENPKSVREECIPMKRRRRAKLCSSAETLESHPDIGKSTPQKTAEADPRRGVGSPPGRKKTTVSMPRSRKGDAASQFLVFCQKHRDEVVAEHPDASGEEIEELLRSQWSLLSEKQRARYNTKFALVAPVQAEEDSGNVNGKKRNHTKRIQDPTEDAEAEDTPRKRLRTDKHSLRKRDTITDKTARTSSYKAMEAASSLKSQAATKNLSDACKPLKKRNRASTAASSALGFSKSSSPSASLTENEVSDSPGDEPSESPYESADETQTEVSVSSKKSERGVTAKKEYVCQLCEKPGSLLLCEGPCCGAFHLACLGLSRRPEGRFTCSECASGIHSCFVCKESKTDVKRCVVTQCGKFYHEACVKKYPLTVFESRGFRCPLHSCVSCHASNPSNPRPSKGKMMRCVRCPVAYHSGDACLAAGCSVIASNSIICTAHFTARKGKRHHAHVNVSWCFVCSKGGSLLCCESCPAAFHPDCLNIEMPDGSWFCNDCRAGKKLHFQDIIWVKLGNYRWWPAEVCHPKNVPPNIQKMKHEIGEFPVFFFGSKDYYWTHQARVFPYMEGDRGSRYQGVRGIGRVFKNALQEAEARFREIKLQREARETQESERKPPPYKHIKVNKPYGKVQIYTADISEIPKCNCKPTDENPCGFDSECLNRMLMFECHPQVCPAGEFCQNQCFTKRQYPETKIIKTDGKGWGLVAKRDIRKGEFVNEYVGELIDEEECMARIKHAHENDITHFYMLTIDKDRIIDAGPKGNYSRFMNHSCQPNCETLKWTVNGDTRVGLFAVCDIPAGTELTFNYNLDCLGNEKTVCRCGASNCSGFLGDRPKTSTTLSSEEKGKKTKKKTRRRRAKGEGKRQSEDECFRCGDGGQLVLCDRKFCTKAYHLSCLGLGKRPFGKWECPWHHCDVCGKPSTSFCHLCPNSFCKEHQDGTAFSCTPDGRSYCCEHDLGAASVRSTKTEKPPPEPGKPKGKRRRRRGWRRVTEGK

| Compound | IC50 [1] | AC50 [2] |
| --- | --- | --- |
| N#Cc1c(NC(=O)c2ccc(Br)o2)n(-c2ccccc2)c2nc3ccccc3nc12 | 7.22 µM (active) | 11.6 µM (active) |
| CCCCCCCCCCOC(=O)Cn1c(COc2ccccc2)[n+](C)c2ccccc21 | 12.6 µM (active) | – |
| CCOC(=O)c1c(-c2ccc(-c3ccccc3)cc2)csc1NC(=O)CNCCN(C)C | 32.5 µM (active) | – |
| CC(C)[n+]1ccn(C2=C([N-]S(=O)(=O)c3ccccc3)C(=O)c3ccccc3C2=O)c1 | 7.16 µM (active) | 5.79 µM (active) |
| COc1cc(-c2nnc(SCc3cc(=O)oc4cc(O)c(O)cc34)o2)cc(OC)c1OC | – | 0.665 µM (active) |
